Measured values from paper PMC11533140 (Frontiers in Pharmacology, 2024).
Where two headings read alike, the source gives them in different places. Blank lines part the entries; values can stand above or below the compound they belong to.

Assays:
A2780 cells [1] = assay: MTT antiproliferative assay, A2780; assay type: cell-based; conditions: Homo sapiens
Experimental: (§1) The in vitro inhibition assays of all final compounds against PI3K were performed by Shanghai ChemPartner Co., Ltd. (China). The antiproliferative activities of the compounds against A2780, U87MG, MCF7, and DU145 cell lines were tested by the standard MTT method. CHO cells stably expressing the transcript of hERG were investigated by the automated whole-cell patch clamp technique, using the QPatch system (Sophion). The compound was tested with Salmonella typhimurium strains TA98 and TA100 with the plate incorporation method at seven doses. Apoptosis was evaluated using the One-Step TUNEL Apoptosis Assay Kit (FITC) (cat. no. MA0223; Meilunbio, Dalian, China), according to the manufacturer’s protocol. Male and female SD rats (SLRC Laboratory Animal Inc., Shanghai, China) were used, and the detailed pharmacokinetic procedures are described in Supplementary Material.

MCF7 cells = assay: MTT antiproliferative assay, MCF7; assay type: cell-based; conditions: Homo sapiens
Experimental: as §1

PI3Kδ = PI3Kδ (Homo sapiens, UniProt O00329); assay: in vitro PI3Kδ inhibition assay (isoform selectivity); assay type: biochemical; conditions: Table 4
Experimental: as §1

DU145 cells = assay: MTT antiproliferative assay, DU145; assay type: cell-based; conditions: for IC50: Homo sapiens, DU-145
Experimental: as §1

MRC-5 cells = assay: inhibitory activity on normal cells, MRC-5; assay type: cell-based; conditions: Homo sapiens, MRC5
Source text: (§2) Several clinical PI3K candidates were severely intolerable to patients due to fatal hepatotoxicity and, thus, failed in clinical trials. Thus, evaluating the selectivity of compounds toward normal cells might reduce the risk of clinical failure of new compounds.

HL-7702 cells = assay: inhibitory activity on normal cells, HL-7702; assay type: cell-based; conditions: Homo sapiens, L02
Source text: as §2

PI3Kβ = PI3Kβ (Homo sapiens, UniProt P42338); assay: in vitro PI3Kβ inhibition assay (isoform selectivity); assay type: biochemical; conditions: Table 4
Experimental: as §1

PI3Kα = PI3Kα (Homo sapiens, UniProt P42336); assay: in vitro PI3Kα kinase inhibition assay; assay type: biochemical
Experimental: as §1

mTOR = mTOR (Homo sapiens, UniProt P42345); assay: in vitro mTOR inhibition assay (selectivity); assay type: biochemical; conditions: Table 4
Experimental: as §1

PI3Kγ = PI3Kγ (Homo sapiens, UniProt P48736); assay: in vitro PI3Kγ inhibition assay (isoform selectivity); assay type: biochemical; conditions: Table 4
Experimental: as §1

U87MG cells = assay: MTT antiproliferative assay, U87MG; assay type: cell-based; conditions: for IC50: Homo sapiens, U-87 MG
Experimental: as §1

[2] = system: Salmonella typhimurium TA100; assay: Ames test, plate incorporation, TA100; assay type: cell-based
Experimental: as §1
(§3) S. typhimurium TA98 and TA100 were selected to conduct the Ames experiment to investigate the genotoxicity risk of compound 17p.

[3] = liver microsome stability, rat; assay type: in vitro ADME; conditions: liver microsomes
Experimental: (§4) The metabolic stability of 17p was evaluated in liver microsome assays, which measure clearance and half-life in rats and humans.

[4] = liver microsome stability, human; assay type: in vitro ADME; conditions: liver microsomes
Experimental: as §4

[5] = pharmacokinetics in SD rats; assay type: in vivo; design: area under the curve: unit not given here; conditions: for AUC(0-t) / Cmax / half-life / Tmax / bioavailability: rat, plasma; for bioavailability: read-out: F (oral bioavailability)
Experimental: as §1
According to the good in vitro properties of compound 17p, we performed pharmacokinetic analyses in male and female SD rats at doses of 10 (po) and 2.5 mg/kg (iv), respectively (Table 9). The pharmacokinetic properties in male and female SD rats were […]. […] Thus, compound 17p had favorable pharmacokinetic properties.

[6] = system: Salmonella typhimurium TA98; assay: Ames test, plate incorporation, TA98; assay type: cell-based
Experimental: as §1, §3

A2780 cells [7] = assay: TUNEL apoptosis assay in A2780; assay type: cell-based; conditions: 24 h treatment
Experimental: as §1
The ED50 value of 17p cytotoxicity was determined using a multiple logistic regression model.

hERG potassium currents = molecular target: T1, hERG potassium currents (Homo sapiens, UniProt Q12809); assay: hERG automated whole-cell patch clamp (QPatch), CHO cells; assay type: cell-based; conditions: in words
T1 construct: expressed in transfected cells
Experimental: as §1
(§5) To evaluate cardiotoxicity, it is necessary to test inhibitory activity on hERG potassium currents.

hERG = molecular target: T2, hERG (Homo sapiens, UniProt Q12809); assay: as above; assay type: cell-based; conditions: human, CHO cells stably expressing hERG; CHO cells expressing hERG, patch clamp; read-out: IC50 on hERG potassium currents
T2 construct: expressed in transfected cells
Experimental: as §1, §5

[8] = Figure 5 activity bins, read-out: IC50 range in SAR figure (PI3Kα)
[9] = Table 4, read-out: IC50 PI3Kα (isoform selectivity study)
[10] = mean of three independent experiments, read-out: IC50 against PI3Kα
[11] = Figure 5 activity bins, read-out: weak activity IC50 in SAR figure (PI3Kα)
[12] = read-out: T1/2 liver microsomes

Sequence of PI3Kα (P42336 whole entry): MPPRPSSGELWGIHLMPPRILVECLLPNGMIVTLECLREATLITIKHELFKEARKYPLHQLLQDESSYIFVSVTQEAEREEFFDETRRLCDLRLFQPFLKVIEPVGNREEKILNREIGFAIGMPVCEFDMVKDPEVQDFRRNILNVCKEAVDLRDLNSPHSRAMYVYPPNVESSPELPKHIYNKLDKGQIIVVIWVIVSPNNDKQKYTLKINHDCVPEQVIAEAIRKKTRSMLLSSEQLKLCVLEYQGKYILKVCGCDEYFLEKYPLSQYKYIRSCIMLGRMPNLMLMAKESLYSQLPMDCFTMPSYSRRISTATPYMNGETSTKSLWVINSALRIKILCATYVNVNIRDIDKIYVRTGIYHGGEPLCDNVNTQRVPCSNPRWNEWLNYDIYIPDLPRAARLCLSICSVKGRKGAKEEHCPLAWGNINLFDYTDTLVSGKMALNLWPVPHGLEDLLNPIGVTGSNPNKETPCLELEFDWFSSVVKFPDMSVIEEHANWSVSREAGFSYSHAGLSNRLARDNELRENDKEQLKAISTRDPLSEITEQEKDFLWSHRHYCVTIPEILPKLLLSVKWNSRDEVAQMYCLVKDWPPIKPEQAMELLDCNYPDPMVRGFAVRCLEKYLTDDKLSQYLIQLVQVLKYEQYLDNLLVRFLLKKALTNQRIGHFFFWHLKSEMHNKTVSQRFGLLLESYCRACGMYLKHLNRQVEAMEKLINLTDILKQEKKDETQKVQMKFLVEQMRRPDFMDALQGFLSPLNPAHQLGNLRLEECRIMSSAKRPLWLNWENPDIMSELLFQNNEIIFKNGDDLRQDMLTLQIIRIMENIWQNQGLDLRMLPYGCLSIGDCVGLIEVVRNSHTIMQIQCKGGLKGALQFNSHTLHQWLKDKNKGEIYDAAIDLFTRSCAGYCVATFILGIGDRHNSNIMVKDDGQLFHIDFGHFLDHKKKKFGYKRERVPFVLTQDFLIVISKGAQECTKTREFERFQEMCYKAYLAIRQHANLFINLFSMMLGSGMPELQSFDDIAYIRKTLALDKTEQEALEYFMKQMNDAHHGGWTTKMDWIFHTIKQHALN
Sequence of PI3Kα (P27986 whole entry partner): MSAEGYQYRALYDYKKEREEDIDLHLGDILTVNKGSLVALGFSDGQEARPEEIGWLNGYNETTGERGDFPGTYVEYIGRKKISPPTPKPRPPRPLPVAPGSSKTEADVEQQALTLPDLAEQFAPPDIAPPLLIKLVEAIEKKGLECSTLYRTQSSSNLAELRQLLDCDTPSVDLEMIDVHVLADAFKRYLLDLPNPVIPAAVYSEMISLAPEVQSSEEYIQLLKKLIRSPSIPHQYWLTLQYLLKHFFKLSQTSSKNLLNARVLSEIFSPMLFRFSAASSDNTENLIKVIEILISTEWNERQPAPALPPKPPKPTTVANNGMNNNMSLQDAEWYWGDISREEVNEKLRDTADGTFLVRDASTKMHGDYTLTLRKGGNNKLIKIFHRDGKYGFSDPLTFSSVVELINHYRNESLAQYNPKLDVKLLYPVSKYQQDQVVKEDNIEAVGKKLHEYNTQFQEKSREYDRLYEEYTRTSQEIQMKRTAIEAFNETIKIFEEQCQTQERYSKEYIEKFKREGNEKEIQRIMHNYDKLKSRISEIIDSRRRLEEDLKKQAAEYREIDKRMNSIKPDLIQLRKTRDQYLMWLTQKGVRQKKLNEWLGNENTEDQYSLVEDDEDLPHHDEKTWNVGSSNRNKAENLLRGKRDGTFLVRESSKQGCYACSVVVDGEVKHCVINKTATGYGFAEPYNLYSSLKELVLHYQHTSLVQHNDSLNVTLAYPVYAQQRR
Sequence of PI3Kβ (P42338 whole entry, canonical isoform): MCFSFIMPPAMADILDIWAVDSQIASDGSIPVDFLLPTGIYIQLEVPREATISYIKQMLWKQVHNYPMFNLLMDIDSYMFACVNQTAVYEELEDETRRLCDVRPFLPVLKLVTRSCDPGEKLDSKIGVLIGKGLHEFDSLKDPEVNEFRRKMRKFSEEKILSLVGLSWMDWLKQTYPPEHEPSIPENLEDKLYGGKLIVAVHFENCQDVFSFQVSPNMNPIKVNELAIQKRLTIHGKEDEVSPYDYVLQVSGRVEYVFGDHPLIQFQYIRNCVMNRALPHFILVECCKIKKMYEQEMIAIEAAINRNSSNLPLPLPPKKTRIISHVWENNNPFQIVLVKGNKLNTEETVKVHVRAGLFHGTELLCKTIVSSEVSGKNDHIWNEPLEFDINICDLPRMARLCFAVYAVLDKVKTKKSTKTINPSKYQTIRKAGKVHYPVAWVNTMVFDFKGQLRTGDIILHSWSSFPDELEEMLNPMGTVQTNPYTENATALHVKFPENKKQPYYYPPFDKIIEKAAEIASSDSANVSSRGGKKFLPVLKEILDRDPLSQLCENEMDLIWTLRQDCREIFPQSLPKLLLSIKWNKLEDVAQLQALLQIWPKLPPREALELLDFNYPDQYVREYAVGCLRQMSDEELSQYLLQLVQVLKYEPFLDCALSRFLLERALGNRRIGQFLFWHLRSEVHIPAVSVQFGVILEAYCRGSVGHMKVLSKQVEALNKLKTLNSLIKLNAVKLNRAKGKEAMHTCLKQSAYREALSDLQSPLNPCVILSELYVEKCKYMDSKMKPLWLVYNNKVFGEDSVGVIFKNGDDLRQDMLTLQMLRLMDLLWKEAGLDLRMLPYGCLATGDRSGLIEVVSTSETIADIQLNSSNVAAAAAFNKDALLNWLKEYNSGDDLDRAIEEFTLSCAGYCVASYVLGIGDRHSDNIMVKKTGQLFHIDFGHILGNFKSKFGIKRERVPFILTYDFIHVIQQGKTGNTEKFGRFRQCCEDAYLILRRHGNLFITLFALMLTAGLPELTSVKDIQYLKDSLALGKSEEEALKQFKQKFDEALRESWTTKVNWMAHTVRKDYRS
Sequence of PI3Kβ (P27986 whole entry partner, canonical isoform): as the sequence (P27986 whole entry partner) above
Sequence of PI3Kδ (O00329 whole entry, canonical isoform): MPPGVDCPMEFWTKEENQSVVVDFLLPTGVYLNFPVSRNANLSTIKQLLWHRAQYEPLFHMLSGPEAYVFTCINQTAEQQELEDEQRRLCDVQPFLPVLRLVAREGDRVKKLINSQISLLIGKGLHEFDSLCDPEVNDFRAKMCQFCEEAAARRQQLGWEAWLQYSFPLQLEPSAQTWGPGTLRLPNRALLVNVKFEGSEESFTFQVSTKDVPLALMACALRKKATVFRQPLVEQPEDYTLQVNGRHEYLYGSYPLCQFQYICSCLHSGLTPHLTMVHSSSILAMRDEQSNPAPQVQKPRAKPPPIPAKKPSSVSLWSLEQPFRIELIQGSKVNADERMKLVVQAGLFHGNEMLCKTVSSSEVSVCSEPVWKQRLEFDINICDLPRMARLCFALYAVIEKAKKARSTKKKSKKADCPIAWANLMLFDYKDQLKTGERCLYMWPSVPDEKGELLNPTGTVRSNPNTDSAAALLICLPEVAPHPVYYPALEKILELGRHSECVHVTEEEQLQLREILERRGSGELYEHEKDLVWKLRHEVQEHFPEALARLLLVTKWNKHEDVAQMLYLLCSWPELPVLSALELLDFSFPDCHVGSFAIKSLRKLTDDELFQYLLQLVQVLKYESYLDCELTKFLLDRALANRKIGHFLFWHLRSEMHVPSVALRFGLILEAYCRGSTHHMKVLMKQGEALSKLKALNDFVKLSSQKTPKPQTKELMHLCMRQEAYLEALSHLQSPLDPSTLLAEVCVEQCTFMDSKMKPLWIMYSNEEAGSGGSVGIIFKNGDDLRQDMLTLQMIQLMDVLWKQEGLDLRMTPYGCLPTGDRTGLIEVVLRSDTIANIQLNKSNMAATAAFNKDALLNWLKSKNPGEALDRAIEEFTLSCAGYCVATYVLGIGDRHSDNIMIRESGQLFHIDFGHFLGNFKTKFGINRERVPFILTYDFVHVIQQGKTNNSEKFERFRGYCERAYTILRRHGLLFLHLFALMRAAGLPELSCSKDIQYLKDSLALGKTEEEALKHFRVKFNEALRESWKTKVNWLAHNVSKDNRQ
Sequence of PI3Kδ (P27986 whole entry partner, canonical isoform): as the sequence (P27986 whole entry partner) above
Sequence of PI3Kγ (P48736 whole entry, canonical isoform): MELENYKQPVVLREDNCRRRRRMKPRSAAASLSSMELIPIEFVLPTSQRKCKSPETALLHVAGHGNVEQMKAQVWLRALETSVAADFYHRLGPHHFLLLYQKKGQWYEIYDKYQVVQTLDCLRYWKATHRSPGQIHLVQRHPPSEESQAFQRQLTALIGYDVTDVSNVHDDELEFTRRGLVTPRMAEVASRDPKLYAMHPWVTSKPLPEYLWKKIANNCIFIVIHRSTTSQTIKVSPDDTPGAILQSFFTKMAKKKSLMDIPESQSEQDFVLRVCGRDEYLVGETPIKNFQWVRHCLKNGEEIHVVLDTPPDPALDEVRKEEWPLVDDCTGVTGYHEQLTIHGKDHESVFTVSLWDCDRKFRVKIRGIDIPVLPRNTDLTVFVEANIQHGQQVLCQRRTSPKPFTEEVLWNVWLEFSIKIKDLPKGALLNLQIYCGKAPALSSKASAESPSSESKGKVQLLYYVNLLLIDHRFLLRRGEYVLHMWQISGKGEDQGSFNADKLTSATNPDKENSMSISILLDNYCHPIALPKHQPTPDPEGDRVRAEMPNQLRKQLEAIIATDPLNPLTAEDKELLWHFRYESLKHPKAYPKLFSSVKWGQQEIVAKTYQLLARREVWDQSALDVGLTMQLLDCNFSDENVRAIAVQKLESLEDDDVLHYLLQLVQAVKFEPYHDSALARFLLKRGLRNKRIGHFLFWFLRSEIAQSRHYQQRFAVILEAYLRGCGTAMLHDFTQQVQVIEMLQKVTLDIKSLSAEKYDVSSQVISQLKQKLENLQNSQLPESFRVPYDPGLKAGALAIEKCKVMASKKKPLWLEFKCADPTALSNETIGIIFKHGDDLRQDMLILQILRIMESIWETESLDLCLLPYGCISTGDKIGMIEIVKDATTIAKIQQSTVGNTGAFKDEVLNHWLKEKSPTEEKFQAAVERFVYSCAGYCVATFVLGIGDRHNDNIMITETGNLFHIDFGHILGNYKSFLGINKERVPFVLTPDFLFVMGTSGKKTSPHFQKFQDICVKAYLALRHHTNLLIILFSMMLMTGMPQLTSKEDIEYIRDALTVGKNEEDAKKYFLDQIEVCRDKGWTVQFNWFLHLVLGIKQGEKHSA

SMILES: COc1cccc(-c2nc(N3CCOCC3)nc(N3CCOCC3)c2C#N)c1 [Compound 17g]
IC50 (PI3Kα; [11]): > 1 µM
IC50 (PI3Kα; [10]): 3.27 µM

SMILES: N#Cc1c(-c2ccc(N)cc2)nc(N2CCOCC2)nc1N1CCOCC1 [Compound 17h]
IC50 (PI3Kα; [8]): 0.4 to 0.8 µM
IC50 (PI3Kα; [10]): 0.477 ± 0.0524 µM

SMILES: N#Cc1c(-c2cccnc2)nc(N2CCOCC2)nc1N1CCOCC1 [Compound 17i]
IC50 (PI3Kα; [8]): 0.4 to 0.8 µM
IC50 (PI3Kα; [10]): 0.792 ± 0.0877 µM

SMILES: N#Cc1c(-c2ccncc2)nc(N2CCOCC2)nc1N1CCOCC1 [Compound 17j]
IC50 (PI3Kα; [11]): > 1 µM
IC50 (PI3Kα; [10]): 3.04 µM

SMILES: N#Cc1c(-c2cncnc2)nc(N2CCOCC2)nc1N1CCOCC1 [Compound 17n]
IC50 (PI3Kα; [8]): 0.4 to 0.8 µM
IC50 (PI3Kα; [10]): 0.604 ± 0.103 µM

SMILES: N#Cc1c(-c2cnc(N)nc2C(F)(F)F)nc(N2CCOCC2)nc1N1CCOCC1 [Compound 17p]
IC50 (A2780 cells [1]): 0.85 ± 0.11 µM
IC50 (MCF7 cells): 1.59 ± 0.08 µM
Number of bacterial colony revertant mutations (mean ± SD) TA100 ([2]; 3 μg/dish): 88 ± 7
Number of bacterial colony revertant mutations (mean ± SD) TA100 ([2]; 10 μg/dish): 92 ± 3
Number of bacterial colony revertant mutations (mean ± SD) TA100 ([2]; 30 μg/dish): 86 ± 4
Number of bacterial colony revertant mutations (mean ± SD) TA100 ([2]; 100 μg/dish): 91 ± 6
Number of bacterial colony revertant mutations (mean ± SD) TA100 ([2]; 300 μg/dish): 90 ± 3
Number of bacterial colony revertant mutations (mean ± SD) TA100 ([2]; 1,000 μg/dish): 91 ± 1
Number of bacterial colony revertant mutations (mean ± SD) TA100 ([2]; 5,000 μg/dish): 87 ± 1
mutagenic effect on TA100 ([2]; in words): no mutagenic effect
microsomal CLint ([3]; read-out: CL liver microsomes): 36 µL/min/mg
half-life [3, 12]: 0.642 h
microsomal CLint ([4]; read-out: CL liver microsomes): 10.8 µL/min/mg
half-life [4, 12]: 2.13 h
Cl_F_pred ([5]; female SD rats, 2.5 mg/kg iv): 0.09 L/h/kg
Cl_F_pred (plasma clearance) ([5]; female SD rats, 10 mg/kg po): 0.2 L/h/kg
area under the curve ([5]; female SD rats, 10 mg/kg po): 50,618.9
Cl_F_pred ([5]; male SD rats, 2.5 mg/kg iv): 0.98 L/h/kg
Cl_F_pred ([5]; male SD rats, 10 mg/kg po): 6.54 L/h/kg
AUC(0-t) ([5]; female SD rats, 2.5 mg/kg iv): 27.4 µg·h/mL
Cmax ([5]; female SD rats, 2.5 mg/kg iv): 4.28 µg/mL
half-life ([5]; female SD rats, 2.5 mg/kg iv): 2.79 h
AUC(0-t) ([5]; female SD rats, 10 mg/kg po): 50.6 µg·h/mL
Cmax ([5]; female SD rats, 10 mg/kg po): 4.86 µg/mL
Tmax ([5]; female SD rats, 10 mg/kg po): 3.33 h
half-life ([5]; female SD rats, 10 mg/kg po): 2.03 h
bioavailability ([5]; female SD rats, 10 mg/kg po): 46.2%
AUC(0-t) ([5]; male SD rats, 2.5 mg/kg iv): 2.69 µg·h/mL
Cmax ([5]; male SD rats, 2.5 mg/kg iv): 3.12 µg/mL
half-life ([5]; male SD rats, 2.5 mg/kg iv): 0.68 h
AUC(0-t) ([5]; male SD rats, 10 mg/kg po): 1.86 µg·h/mL
Cmax ([5]; male SD rats, 10 mg/kg po): 0.538 µg/mL
Tmax ([5]; male SD rats, 10 mg/kg po): 0.67 h
half-life ([5]; male SD rats, 10 mg/kg po): 3.19 h
bioavailability ([5]; male SD rats, 10 mg/kg po): 17.3%
IC50 (PI3Kδ): 0.0154 ± 0.0019 µM
Number of bacterial colony revertant mutations (mean ± SD) TA98 ([6]; 3 μg/dish): 38 ± 7
Number of bacterial colony revertant mutations (mean ± SD) TA98 ([6]; 10 μg/dish): 41 ± 4
Number of bacterial colony revertant mutations (mean ± SD) TA98 ([6]; 30 μg/dish): 37 ± 11
Number of bacterial colony revertant mutations (mean ± SD) TA98 ([6]; 100 μg/dish): 43 ± 4
Number of bacterial colony revertant mutations (mean ± SD) TA98 ([6]; 300 μg/dish): 29 ± 4
Number of bacterial colony revertant mutations (mean ± SD) TA98 ([6]; 1,000 μg/dish): 44 ± 5
Number of bacterial colony revertant mutations (mean ± SD) TA98 ([6]; 5,000 μg/dish): 40 ± 4
mutagenic effect on TA98 ([6]; in words): no mutagenic effect
IC50 (DU145 cells): 8.77 ± 1.16 µM
IC50 (MRC-5 cells): 8.47 ± 0.77 µM
cytotoxicity ED50 (TUNEL, logistic regression) (A2780 cells [7]): 5.345 µM
IC50 (HL-7702 cells): 4.62 ± 0.52 µM
IC50 (PI3Kβ): 0.125 ± 0.0101 µM
IC50 (PI3Kα; [8]): 0.03 to 0.3 µM
IC50 (PI3Kα; [9]): 0.0303 ± 0.0035 µM
IC50 (PI3Kα; [10]): 0.0324 ± 0.0041 µM
IC50 (mTOR): 1.42 ± 0.184 µM
IC50 (PI3Kγ): 0.286 ± 0.0396 µM
inhibition of hERG potassium currents (hERG potassium currents): no obvious inhibition
IC50 (hERG): 0.39 ± 0.03 µM
IC50 (U87MG cells): 4.72 ± 0.37 µM

Further lines, with some results ahead:

IC50 (A2780 cells [1]): 0.39 ± 0.03 µM
IC50 (MCF7 cells): 0.37 ± 0.03 µM
IC50 (PI3Kδ): 0.0556 ± 0.0038 µM
IC50 (DU145 cells): 1.52 ± 0.11 µM
IC50 (PI3Kβ): 0.152 ± 0.0187 µM
IC50 (PI3Kα; [8]): 0.03 to 0.3 µM
IC50 (PI3Kα; [9]): 0.0861 ± 0.0078 µM
IC50 (PI3Kα; [10]): 0.0885 ± 0.0061 µM
IC50 (mTOR): > 10 µM
IC50 (PI3Kγ): 0.318 ± 0.019 µM
IC50 (U87MG cells): 1.75 ± 0.22 µM
SMILES: N#Cc1c(-c2cccc(O)c2)nc(N2CCOCC2)nc1N1CCOCC1 [Compound 17e]
IC50 (MRC-5 cells): 2.19 ± 0.11 µM
IC50 (HL-7702 cells): 6.17 ± 0.75 µM

IC50 (PI3Kα; [8]): 0.4 to 0.8 µM
IC50 (PI3Kα; [10]): 0.473 ± 0.0283 µM
SMILES: N#Cc1c(-c2ccc(O)cc2)nc(N2CCOCC2)nc1N1CCOCC1 [Compound 17f]

IC50 (PI3Kα; [8]): 0.03 to 0.3 µM
IC50 (PI3Kα; [10]): 0.159 ± 0.0144 µM
SMILES: N#Cc1c(-c2ccc(N)nc2)nc(N2CCOCC2)nc1N1CCOCC1 [Compound 17k]

IC50 (PI3Kα; [8]): 0.4 to 0.8 µM
IC50 (PI3Kα; [10]): 0.443 ± 0.0397 µM
SMILES: Cc1cc(N)ncc1-c1nc(N2CCOCC2)nc(N2CCOCC2)c1C#N [Compound 17l]

IC50 (A2780 cells [1]): 2.72 ± 0.19 µM
IC50 (MCF7 cells): 1.07 ± 0.09 µM
IC50 DU145 (DU145 cells): no inhibitory effects
IC50 (DU145 cells): 12.4 ± 1.47 µM
IC50 (PI3Kα; [8]): 0.03 to 0.3 µM
IC50 (PI3Kα; [10]): 0.104 ± 0.0125 µM
IC50 U87MG (U87MG cells): no inhibitory effects
IC50 (U87MG cells): 66.1 ± 9.94 µM
SMILES: N#Cc1c(-c2cnc(N)cc2C(F)(F)F)nc(N2CCOCC2)nc1N1CCOCC1 [Compound 17m]

IC50 (A2780 cells [1]): 1.13 ± 0.1 µM
IC50 (MCF7 cells): 1.16 ± 0.12 µM
IC50 (PI3Kδ): 0.204 ± 0.0222 µM
IC50 (DU145 cells): 5.05 ± 0.47 µM
IC50 (PI3Kβ): 0.176 ± 0.0263 µM
IC50 (PI3Kα; [8]): 0.03 to 0.3 µM
IC50 (PI3Kα; [9]): 0.0347 ± 0.0046 µM
IC50 (PI3Kα; [10]): 0.0347 ± 0.0021 µM
IC50 (mTOR): 0.204 ± 0.0301 µM
IC50 (PI3Kγ): 0.176 ± 0.0159 µM
IC50 (U87MG cells): 4.19 ± 0.53 µM
SMILES: CNc1ncc(-c2nc(N3CCOCC3)nc(N3CCOCC3)c2C#N)cn1 [Compound 17o]
